Legend:
[1] = target: IRAK4 kinase (Homo sapiens (Human), UniProt Q9NWZ3); assay: IRAK4 kinase activity test (KinEASE-STK S1 HTRF kit); assay type: biochemical; conditions: 2.5 nM IRAK4 kinase, 7 μM ATP, 37° C. 120 min
Protocol: Then 2.5 nM 1RAK4 kinase (Carna), 1 μM biotinylated polypeptide substrate (Cisbio) and 7 μM adenosine triphosphate (Sigma-Aldrich) were sequentially added, and the mixtures were incubated at 37° C. for 120 min. Subsequently, an anti-phosphoserine/threonine antibody (Cisbio) conjugated with a europium element compound and conjugated modified XL665 streptavidin (Cisbio) were added to the reaction systems to stop the reactions. After 1 h of incubation at room temperature, the fluorescence intensity of each well was measured at the excitation wavelength of 337 nm and the emission wavelengths of 620 nm and 665 nm with a microplate reader EnVision (PerkinElmer) in the HTRF mode, and Ratio values were calculated using the formula Ratio=(665 nm/620 nm)×[…]. The inhibition rate of the compound at each concentration was calculated by comparing the fluorescence intensity ratio with that of the control group. Then a non-linear curve fitting of logarithmic concentration-inhibition rate was performed using GraphPad Prism 7, and the IC50 value of the compound was obtained.

[2] = target: IRAK4 protein in THP-1 cells (Homo sapiens (Human), UniProt Q9NWZ3); assay: Degradation of IRAK4 in THP-1 cells, human IRAK4 AlphaLISA assay; assay type: cell-based; conditions: 24 h incubation
Chain of IRAK4 protein in THP-1 cells (Q9NWZ3 whole entry): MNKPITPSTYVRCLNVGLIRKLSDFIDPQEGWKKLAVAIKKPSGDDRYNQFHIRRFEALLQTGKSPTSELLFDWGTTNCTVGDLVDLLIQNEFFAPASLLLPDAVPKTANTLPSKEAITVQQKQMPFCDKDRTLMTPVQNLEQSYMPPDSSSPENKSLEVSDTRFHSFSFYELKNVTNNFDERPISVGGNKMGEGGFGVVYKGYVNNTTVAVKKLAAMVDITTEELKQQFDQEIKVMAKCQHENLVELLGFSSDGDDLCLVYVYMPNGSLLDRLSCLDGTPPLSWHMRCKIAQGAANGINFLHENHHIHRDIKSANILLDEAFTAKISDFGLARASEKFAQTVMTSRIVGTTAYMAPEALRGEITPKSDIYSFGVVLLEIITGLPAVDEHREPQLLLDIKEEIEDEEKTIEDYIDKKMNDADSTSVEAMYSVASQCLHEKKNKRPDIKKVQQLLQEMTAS
Protocol: THP-1 cells (Stem Cell Bank, Chinese Academy of Sciences) were inoculated onto a 24-well cell culture plate at 0.95 mL/well, with a cell density of 5×10^5 cells/well. The cell plate was incubated overnight in a 37° C., 5% carbon dioxide incubator, and 50 μL of a solution of a compound in dimethyl sulfoxide was added, such that the final concentration of the compound fell within the range of 0.03-3000 nM. After another 24 h of incubation, cells were collected into 1.5 mL centrifuge tubes and centrifuged at 1000 rpm at 4° C. for 5 min. The cell pellets were washed twice with 1×DPBS. The resuspended cells were lysed with 200 μL of lysis buffer (Western and IP cell lysis buffer (Beyotime), supplemented with 1 mM phenylmethylsulfonyl fluoride and protease inhibitor cocktail (Beyotime)), left to stand on ice for 30 mini, and then centrifuged at 14,000 g at 4° C. for 10 min. The supernatant samples were assayed by Western Blot for IRAK4 protein levels.
The above cell lysates were also tested for IRAK4 degradation using a human IRAK4 AlphaLISA assay kit (PerkinElmer, AL3117C). The method is specifically as follows: 2-μL test samples of cell lysate supernatant were transferred to a white 384-well plate (PerkinElmer, 6007299), and 4 μL of 5× anti-IRAK4 receptor beads (PerkinElmer, final concentration of 10 μg/mL) was then added. The plate was incubated at 23° C. for 30 min. Then 4 μL of 5× biotin-labeled anti-IRAK4 antibody (PerkinElmer, final concentration of 1 nM) was added, and the plate was incubated at 23° C. for 60 min. Finally, 10 μL of 2′ streptavidin-labeled donor beads (final concentration of 40 μg/mL) was added to each well, and the plate was incubated in the dark at 23° C. for 30 min. After the incubation was complete, AlphaLISA signal values were measured on a microplate reader EnVision (PerkinElmer, 2105) in the AlphaScreen standard mode, and IRAK4 concentrations were calculated from these signal values. Then a non-linear curve fitting of logarithmic concentration-inhibition rate was performed using GraphPad Prism 7, and the DC50 and Dmax values of the compound were obtained.

Chain of IRAK4 kinase (Q9NWZ3 whole entry): as above

| SMILES | IC50 [1] [nM] | DC50 [2] [nM] | Dmax [2] [%] |
| --- | --- | --- | --- |
| O=C1CCN(c2cc(C(=O)N3CCC4(CCC(CCN5CCC(n6cc(NC(=O)c7cnn8ccc(N9CCOCC9)nc78)c(C(F)F)n6)CC5)CC4)CC3)ccc2Cl)C(=O)N1 [Example 42, N-(1-(1-(2-(3-(4-chloro-3-(2,4-dioxotetrahydropyrimidin-1(2H)-yl)benzoyl)-3-azaspiro[5.5]undecan-9-yl)ethyl)piperidin-4-yl)-3-(difluoromethyl)-1H-pyrazol-4-yl)-5-morpholinopyrazolo[1,5-a]pyrimidine-3-carboxamide] | 18.6 | 3.66 | 91.7 |
| COc1ccc(C(=O)N2CCC3(CCC(CCN4CCC(n5cc(NC(=O)c6cnn7ccc(N8CCOCC8)nc67)c(C(F)F)n5)CC4)CC3)CC2)cc1N1CCC(=O)NC1=O [Example 28, N-(3-(difluoromethyl)-1-(1-(2-(3-(3-(2,4-dioxotetrahydropyrimidin-1(2H)-yl)-4-methoxybenzoyl)-3-azaspiro[5.5]undecan-9-yl)ethyl)piperidin-4-yl)-1H-pyrazol-4-yl)-5-morpholinopyrazolo[1,5-a]pyrimidine-3-carboxamide] | 12.9 | 3.18 | 89.4 |
| Cc1ccc(C(=O)N2CCC3(CCC(CN4CCC(n5cc(NC(=O)c6cnn7ccc(N8CCC[C@H](N)C8)nc67)c(C(F)F)n5)CC4)CC3)CC2)cc1N1CCC(=O)NC1=O [Example 49, (S)-5-(3-aminopiperidin-1-yl)-N-(3-(difluoromethyl)-1-(1-((3-(3-(2,4-dioxotetrahydropyrimidin-1(2H)-yl)-4-methylbenzoyl)-3-azaspiro[5.5]undecan-9-yl)methyl)piperidin-4-yl)-1H-pyrazol-4-yl)pyrazolo[1,5-a]pyrimidine-3-carboxamide] | 7.05 | 3.22 | 97.1 |
| CN(CCN1CCC(n2cc(NC(=O)c3cnn4ccc(N5C[C@H]6C[C@@H]5CO6)nc34)c(C(F)F)n2)CC1)CC1CCN(C(=O)c2ccc(Cl)c(N3CCC(=O)NC3=O)c2)CC1 [Example 20, 5-((1R,4R)-2-oxa-5-azabicyclo[2.2.1]heptan-5-yl)-N-(1-(1-(2-(((1-(4-chloro-3-(2,4-dioxotetrahydropyrimidin-1(2H)-yl)benzoyl)piperidin-4-yl)methyl)(methyl)amino)ethyl)piperidin-4-yl)-3-(difluoromethyl)-1H-pyrazol-4-yl)pyrazolo[1,5-a]pyrimidine-3-carboxamide] | 89.2 | 78.6 | 87 |
| O=C1CCN(c2cc(C(=O)N3CCC(CCN4CCC(n5cc(NC(=O)c6cnn7ccc(N8CCOCC8)nc67)c(C(F)F)n5)CC4)CC3)ccc2F)C(=O)N1 [Example 37, N-(3-(difluoromethyl)-1-(1-(2-(1-(3-(2,4-dioxotetrahydropyrimidin-1(2H)-yl)-4-fluorobenzoyl)piperidin-4-yl)ethyl)piperidin-4-yl)-1H-pyrazol-4-yl)-5-morpholinopyrazolo[1,5-a]pyrimidine-3-carboxamide] | 13.1 | 42 | 81.1 |
| COc1ccc(C(=O)N2CCC3(CCC(CN4CCC(n5cc(NC(=O)c6cnn7ccc(N8C[C@H]9C[C@@H]8CO9)nc67)c(C(F)F)n5)CC4)CC3)CC2)cc1N1CCC(=O)NC1=O [Example 13, 5-((1R,4R)-2-oxa-5-azabicyclo[2.2.1]heptan-5-yl)-N-(3-(difluoromethyl)-1-(1-((3-(3-(2,4-dioxotetrahydropyrimidin-1(2H)-yl)-4-methoxybenzoyl)-3-azaspiro[5.5]undecan-9-yl)methyl)piperidin-4-yl)-1H-pyrazol-4-yl)pyrazolo[1,5-a]pyrimidine-3-carboxamide] | 19.3 | 5.5 | 84.4 |
| Cc1ccc(C(=O)N2CCC3(CCC(CN4CCC(n5cc(NC(=O)c6cnn7ccc(N8C[C@H]9C[C@@H]8CO9)nc67)c(C(F)F)n5)CC4)CC3)CC2)cc1N1CCC(=O)NC1=O [Example 44, 5-((1R,4R)-2-oxa-5-azabicyclo[2.2.1]heptan-5-yl)-N-(3-(difluoromethyl)-1-(1-((3-(3-(2,4-dioxotetrahydropyrimidin-1(2H)-yl)-4-methylbenzoyl)-3-azaspiro[5.5]undecan-9-yl)methyl)piperidin-4-yl)-1H-pyrazol-4-yl)pyrazolo[1,5-a]pyrimidine-3-carboxamide] | 13.4 | 6.3 | 80.5 |
| Cc1ccc(C(=O)N2CCC3(CCC(CN4CCC(n5cc(NC(=O)c6cnn7ccc(N8CC9(COC9)C8)nc67)c(C(F)F)n5)CC4)CC3)CC2)cc1N1CCC(=O)NC1=O [Example 50, N-(3-(difluoromethyl)-1-(1-((3-(3-(2,4-dioxotetrahydropyrimidin-1(2H)-yl)-4-methylbenzoyl)-3-azaspiro[5.5]undecan-9-yl)methyl)piperidin-4-yl)-1H-pyrazol-4-yl)-5-(2-oxa-6-azaspiro[3.3]heptan-6-yl)pyrazolo[1,5-a]pyrimidine-3-carboxamide] | 36.7 | 5.94 | 82.1 |
| COc1ccc(C(=O)N2CCC3(CCN(CCCN4CCC(n5cc(NC(=O)c6cnn7ccc(N8CCOCC8)nc67)c(C(F)F)n5)CC4)CC3)CC2)cc1N1CCC(=O)NC1=O [Example 60, N-(3-(difluoromethyl)-1-(1-(3-(9-(3-(2,4-dioxotetrahydropyrimidin-1(2H)-yl)-4-methoxybenzoyl)-3,9-diazaspiro[5.5]undecan-3-yl)propyl)piperidin-4-yl)-1H-pyrazol-4-yl)-5-morpholinopyrazolo[1,5-a]pyrimidine-3-carboxamide] | 21.9 | 9.36 | 96.6 |
| O=C1CCN(c2cc(C(=O)N3CCC4(CCC(CN5CCC(n6cc(NC(=O)c7cnn8ccc(N9CCS(=O)(=O)CC9)nc78)c(C(F)F)n6)CC5)CC4)CC3)ccc2Cl)C(=O)N1 [Example 63, N-(1-(1-((3-(4-chloro-3-(2,4-dioxotetrahydropyrimidin-1(2H)-yl)benzoyl)-3-azaspiro[5.5]undecan-9-yl)methyl)piperidin-4-yl)-3-(difluoromethyl)-1H-pyrazol-4-yl)-5-(1,1-dioxothiomorpholinyl)pyrazolo[1,5-a]pyrimidine-3-carboxamide] | 36.2 | 9.18 | 79.3 |
| O=C1CCN(c2cc(C(=O)N3CCC4(CCC(CN5CCC(n6cc(NC(=O)c7cnn8ccc(N9CCC[C@H](O)C9)nc78)c(C(F)F)n6)CC5)CC4)CC3)ccc2Cl)C(=O)N1 [Example 57, (S)-N-(1-(1-((3-(4-chloro-3-(2,4-dioxotetrahydropyrimidin-1(2H)-yl)benzoyl)-3-azaspiro[5.5]undecan-9-yl)methyl)piperidin-4-yl)-3-(difluoromethyl)-1H-pyrazol-4-yl)-5-(3-hydroxypiperidin-1-yl)pyrazolo[1,5-a]pyrimidine-3-carboxamide] | 4.57 | 0.58 | 96.6 |
| N[C@H]1CCCN(c2ccn3ncc(C(=O)Nc4cn(C5CCN(CC6CCC7(CC6)CCN(C(=O)c6ccc(Cl)c(N8CCC(=O)NC8=O)c6)CC7)CC5)nc4C(F)F)c3n2)C1 [Example 64, (S)-5-(3-aminopiperidin-1-yl)-N-(1-(1-((3-(4-chloro-3-(2,4-dioxotetrahydropyrimidin-1(2H)-yl)benzoyl)-3-azaspiro[5.5]undecan-9-yl)methyl)piperidin-4-yl)-3-(difluoromethyl)-1H-pyrazol-4-yl)pyrazolo[1,5-a]pyrimidine-3-carboxamide] | 5.93 | 7.47 | 96.1 |
| O=C1CCN(c2cc(C(=O)N3CCC4(CCC(CN5CCC(n6cc(NC(=O)c7cnn8ccc(N9CCOCC9)nc78)c(C(F)F)n6)CC5)CC4)CC3)ccc2OC(F)(F)F)C(=O)N1 [Example 52, N-(3-(difluoromethyl)-1-(1-((3-(3-(2,4-dioxotetrahydropyrimidin-1(2H)-yl)-4-(trifluoromethoxy)benzoyl)-3-azaspiro[5.5]undecan-9-yl)methyl)piperidin-4-yl)-1H-pyrazol-4-yl)-5-morpholinopyrazolo[1,5-a]pyrimidine-3-carboxamide] | 23.8 | 18.4 | 95.4 |

Source: patent publication US20240368194A1, “IRAK4 DEGRADATION AGENT, AND PREPARATION METHOD THEREFOR AND USE THEREOF” (SHANGHAI LEADINGTAC PHARMACEUTICAL CO. LTD., priority 2021, published 2024)
